According to ChEMBL document CHEMBL1201862, “PubChem BioAssay data set” (2004):
Active and inactive are the calls of the source.

Assays:
[1] = NIH-3T3 fibroblast cytotoxicity, dose response, cytotoxicity control, cell-based, fluorescence, Alamar Blue, secondary assay (AID 2327); assay type: functional;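 further: NIH-3T3 mouse fibroblasts cultured with fluconazole at 8 µg/mL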
cells [2] = assay type: functional, cell-based
cells [3] = assay type: functional, cell-based; remark: listed apart in the source
[4] = fluconazole-exposed Candida albicans growth modulators – fluorescence, retest, confirmation (AID 2467); assay type: functional, cell-based
Nonstructural protein 1 = Nonstructural protein 1 (Influenza A virus, UniProt Q194T2); assay type: functional, Influenza A virus (A/California/07/2009(H1N1))
[5] = non-specific 3'UTR reporter inhibition in Clone20-Shn3RL – cell-based, Renilla luciferase, cherry-picked, counter-screen for Shn3 inhibitor project, dose response (AID 624133); assay type: functional
[6] = loss of viability in HepG2 cells – cell-based, CellTiter-Glo, cherry-picked, cytotoxicity control for Shn3 inhibitor project, dose response (AID 624134); assay type: functional
[7] = biological target: Heat shock protein HSP 90-alpha (Homo sapiens, UniProt P07900); assay type: functional, organism-based
[8] = biological target: T1, Heat shock factor protein 1 (Mus musculus, UniProt P38532); test: enhancement of HSF1-driven luciferase signal – cell-based, NIH3T3, luminescence, dose retest, confirmation (AID 435004); assay type: functional;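 further: stress induced by proteasome inhibitor MG132 added 30 min after compound; luciferase reporter driven by HSF1 response element in NIH3T3 cells; actives raise luminescence as potentiators of the MG132 stress response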
T1 sequence (P38532 whole entry): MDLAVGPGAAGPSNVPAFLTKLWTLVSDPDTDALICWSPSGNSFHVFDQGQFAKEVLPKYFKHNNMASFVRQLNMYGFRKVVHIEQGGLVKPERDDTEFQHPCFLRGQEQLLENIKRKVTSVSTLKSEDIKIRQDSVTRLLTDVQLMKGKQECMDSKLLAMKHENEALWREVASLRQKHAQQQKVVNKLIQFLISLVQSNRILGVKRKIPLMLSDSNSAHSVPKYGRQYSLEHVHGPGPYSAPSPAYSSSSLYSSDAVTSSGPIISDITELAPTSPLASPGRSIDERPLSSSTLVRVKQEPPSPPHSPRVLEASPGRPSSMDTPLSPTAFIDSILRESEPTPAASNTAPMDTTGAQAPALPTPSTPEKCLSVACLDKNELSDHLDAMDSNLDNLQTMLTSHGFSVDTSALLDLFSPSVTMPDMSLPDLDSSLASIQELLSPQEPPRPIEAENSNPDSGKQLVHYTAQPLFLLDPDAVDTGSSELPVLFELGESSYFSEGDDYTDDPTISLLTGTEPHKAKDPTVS

[9] = reduction of Shn3 3'UTR-driven luciferase in osteoblasts – cell-based, Clone20 osteoblasts, firefly luciferase, cherry-picked, dose response (AID 624132); assay type: functional;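 further: firefly luciferase luminescence from reporter carrying the Shn3 3'UTR in osteoblasts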
Estrogen receptor = biological target: T2, Estrogen receptor (Homo sapiens, UniProt P03372);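 further: potency for inhibiting coactivator peptide recruitment to the receptor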
T2 sequence (P03372 whole entry): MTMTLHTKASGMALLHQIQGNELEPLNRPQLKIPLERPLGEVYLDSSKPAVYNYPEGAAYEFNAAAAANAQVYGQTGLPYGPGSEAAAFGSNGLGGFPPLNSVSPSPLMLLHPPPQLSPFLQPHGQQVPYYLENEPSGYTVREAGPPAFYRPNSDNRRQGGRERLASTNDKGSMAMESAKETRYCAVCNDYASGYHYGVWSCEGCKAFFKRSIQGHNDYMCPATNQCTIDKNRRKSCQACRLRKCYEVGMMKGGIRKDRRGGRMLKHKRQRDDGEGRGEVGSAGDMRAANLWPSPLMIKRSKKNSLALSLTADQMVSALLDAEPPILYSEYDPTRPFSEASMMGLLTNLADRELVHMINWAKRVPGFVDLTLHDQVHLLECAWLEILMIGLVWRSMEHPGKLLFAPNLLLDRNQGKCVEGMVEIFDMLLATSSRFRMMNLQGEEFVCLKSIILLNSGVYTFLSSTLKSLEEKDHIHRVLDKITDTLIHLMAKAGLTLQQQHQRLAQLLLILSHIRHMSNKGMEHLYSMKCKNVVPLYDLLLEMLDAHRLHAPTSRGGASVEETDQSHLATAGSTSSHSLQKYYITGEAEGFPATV

[10] = biological target: T3, High affinity choline transporter 1 (Homo sapiens, UniProt Q9GZV3); test: human choline transporter blockers, potency – cell-based, 5-point CRC, membrane potential dye, dose response (AID 504840); assay type: functional
T3 sequence (Q9GZV3 whole entry): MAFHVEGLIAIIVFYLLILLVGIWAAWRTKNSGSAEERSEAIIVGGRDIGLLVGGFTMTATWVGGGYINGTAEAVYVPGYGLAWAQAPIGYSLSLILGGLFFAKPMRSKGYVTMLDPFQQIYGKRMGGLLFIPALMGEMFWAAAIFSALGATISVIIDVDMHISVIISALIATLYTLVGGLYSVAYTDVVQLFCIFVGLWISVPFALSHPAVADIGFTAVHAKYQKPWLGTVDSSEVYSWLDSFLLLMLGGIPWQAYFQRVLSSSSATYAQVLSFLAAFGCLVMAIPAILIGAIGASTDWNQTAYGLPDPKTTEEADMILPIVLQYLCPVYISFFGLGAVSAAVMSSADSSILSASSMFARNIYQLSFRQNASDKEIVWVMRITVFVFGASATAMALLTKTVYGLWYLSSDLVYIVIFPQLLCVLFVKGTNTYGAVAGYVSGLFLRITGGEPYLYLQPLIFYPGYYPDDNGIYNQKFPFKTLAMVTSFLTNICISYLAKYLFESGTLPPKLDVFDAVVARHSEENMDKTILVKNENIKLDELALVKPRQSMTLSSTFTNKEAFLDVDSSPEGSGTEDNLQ

Genome polyprotein = Genome polyprotein (dengue virus type 2, UniProt P29990); test: flavivirus cap methylation enzyme inhibition – biochemical, confirmation dose response, primary screen (AID 588689); assay type: functional
Fatty acid synthase [11] = biological target: T4, Fatty acid synthase (Homo sapiens, UniProt P49327); test: inhibition of human FAS-TE enzyme activity – biochemical, endpoint fluorescence intensity, uHTS hits, dose response (AID 624327); assay type: functional;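 further: fluorescence from hydrolysis of an O-methyl fluorescein acyl ester substrate by the enzyme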
Fatty acid synthase [12] = biological target: T4, Fatty acid synthase; test: inhibition of human FAS-TE enzyme activity – biochemical, kinetic fluorescence intensity, dose response (AID 624326); assay type: functional;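 further: rate of fluorescence rise from hydrolysis of a fluorogenic O-methyl fluorescein ester substrate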
INS1 = test: INS-1E survival protection against cytokine death – cell-based, luminescence, retest, dose response (AID 449756); assay type: functional; settings: Rattus norvegicus;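 further: cell death triggered by IL-1 beta plus TNF-alpha plus IFN-gamma mixture; protective hits raise ATP signal compared with cytokine alone wells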
[13] = intracellular Trypanosoma cruzi inhibitors in host cells – cell-based, plate reader, cherry-pick samples, set 3, dose response (AID 651818); assay type: functional;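 further: compounds incubated with infected cells for about four days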
Large T antigen = Large T antigen (Simian virus 40, UniProt P03070); assay type: functional, Betapolyomavirus macacae;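 further: Confirmatory-stage PubChem screen for compounds that inhibit SV40 T antigen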
[14] = alpha-synuclein stem-loop luciferase translation blockers – H4 neuroglioma cells, luminescence, confirmation (AID 1988); assay type: functional, cell-based
[15] = luciferase reporter signal suppression in cells – H4 neuroglioma cells, luminescence, dose response (AID 1990); assay type: functional, cell-based
[16] = Luminescence Cell-Based Dose Response HTS to Identify Inhibitors of 5'UTR Stem-Loop Driven Prion Protein mRNA Translation in H4 Neuroglioblastoma Cells. [Related pubchem assays: 1827 (Project Summary), 1813 (Primary HTS)]; assay type: functional
[17] = biological target: Induced myeloid leukemia cell differentiation protein Mcl-1 (Homo sapiens, UniProt Q07820); assay type: functional
Chain of Induced myeloid leukemia cell differentiation protein Mcl-1 (Q07820 whole entry): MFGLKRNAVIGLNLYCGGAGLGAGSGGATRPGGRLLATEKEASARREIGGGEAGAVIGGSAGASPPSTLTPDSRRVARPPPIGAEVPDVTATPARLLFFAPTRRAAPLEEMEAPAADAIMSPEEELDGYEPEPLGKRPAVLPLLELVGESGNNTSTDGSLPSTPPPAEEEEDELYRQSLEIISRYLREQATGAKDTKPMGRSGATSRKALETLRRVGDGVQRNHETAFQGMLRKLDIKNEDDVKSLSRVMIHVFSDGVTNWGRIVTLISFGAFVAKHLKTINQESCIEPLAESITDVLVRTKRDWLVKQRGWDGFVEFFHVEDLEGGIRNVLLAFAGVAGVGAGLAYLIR

T4 sequence (P49327 whole entry): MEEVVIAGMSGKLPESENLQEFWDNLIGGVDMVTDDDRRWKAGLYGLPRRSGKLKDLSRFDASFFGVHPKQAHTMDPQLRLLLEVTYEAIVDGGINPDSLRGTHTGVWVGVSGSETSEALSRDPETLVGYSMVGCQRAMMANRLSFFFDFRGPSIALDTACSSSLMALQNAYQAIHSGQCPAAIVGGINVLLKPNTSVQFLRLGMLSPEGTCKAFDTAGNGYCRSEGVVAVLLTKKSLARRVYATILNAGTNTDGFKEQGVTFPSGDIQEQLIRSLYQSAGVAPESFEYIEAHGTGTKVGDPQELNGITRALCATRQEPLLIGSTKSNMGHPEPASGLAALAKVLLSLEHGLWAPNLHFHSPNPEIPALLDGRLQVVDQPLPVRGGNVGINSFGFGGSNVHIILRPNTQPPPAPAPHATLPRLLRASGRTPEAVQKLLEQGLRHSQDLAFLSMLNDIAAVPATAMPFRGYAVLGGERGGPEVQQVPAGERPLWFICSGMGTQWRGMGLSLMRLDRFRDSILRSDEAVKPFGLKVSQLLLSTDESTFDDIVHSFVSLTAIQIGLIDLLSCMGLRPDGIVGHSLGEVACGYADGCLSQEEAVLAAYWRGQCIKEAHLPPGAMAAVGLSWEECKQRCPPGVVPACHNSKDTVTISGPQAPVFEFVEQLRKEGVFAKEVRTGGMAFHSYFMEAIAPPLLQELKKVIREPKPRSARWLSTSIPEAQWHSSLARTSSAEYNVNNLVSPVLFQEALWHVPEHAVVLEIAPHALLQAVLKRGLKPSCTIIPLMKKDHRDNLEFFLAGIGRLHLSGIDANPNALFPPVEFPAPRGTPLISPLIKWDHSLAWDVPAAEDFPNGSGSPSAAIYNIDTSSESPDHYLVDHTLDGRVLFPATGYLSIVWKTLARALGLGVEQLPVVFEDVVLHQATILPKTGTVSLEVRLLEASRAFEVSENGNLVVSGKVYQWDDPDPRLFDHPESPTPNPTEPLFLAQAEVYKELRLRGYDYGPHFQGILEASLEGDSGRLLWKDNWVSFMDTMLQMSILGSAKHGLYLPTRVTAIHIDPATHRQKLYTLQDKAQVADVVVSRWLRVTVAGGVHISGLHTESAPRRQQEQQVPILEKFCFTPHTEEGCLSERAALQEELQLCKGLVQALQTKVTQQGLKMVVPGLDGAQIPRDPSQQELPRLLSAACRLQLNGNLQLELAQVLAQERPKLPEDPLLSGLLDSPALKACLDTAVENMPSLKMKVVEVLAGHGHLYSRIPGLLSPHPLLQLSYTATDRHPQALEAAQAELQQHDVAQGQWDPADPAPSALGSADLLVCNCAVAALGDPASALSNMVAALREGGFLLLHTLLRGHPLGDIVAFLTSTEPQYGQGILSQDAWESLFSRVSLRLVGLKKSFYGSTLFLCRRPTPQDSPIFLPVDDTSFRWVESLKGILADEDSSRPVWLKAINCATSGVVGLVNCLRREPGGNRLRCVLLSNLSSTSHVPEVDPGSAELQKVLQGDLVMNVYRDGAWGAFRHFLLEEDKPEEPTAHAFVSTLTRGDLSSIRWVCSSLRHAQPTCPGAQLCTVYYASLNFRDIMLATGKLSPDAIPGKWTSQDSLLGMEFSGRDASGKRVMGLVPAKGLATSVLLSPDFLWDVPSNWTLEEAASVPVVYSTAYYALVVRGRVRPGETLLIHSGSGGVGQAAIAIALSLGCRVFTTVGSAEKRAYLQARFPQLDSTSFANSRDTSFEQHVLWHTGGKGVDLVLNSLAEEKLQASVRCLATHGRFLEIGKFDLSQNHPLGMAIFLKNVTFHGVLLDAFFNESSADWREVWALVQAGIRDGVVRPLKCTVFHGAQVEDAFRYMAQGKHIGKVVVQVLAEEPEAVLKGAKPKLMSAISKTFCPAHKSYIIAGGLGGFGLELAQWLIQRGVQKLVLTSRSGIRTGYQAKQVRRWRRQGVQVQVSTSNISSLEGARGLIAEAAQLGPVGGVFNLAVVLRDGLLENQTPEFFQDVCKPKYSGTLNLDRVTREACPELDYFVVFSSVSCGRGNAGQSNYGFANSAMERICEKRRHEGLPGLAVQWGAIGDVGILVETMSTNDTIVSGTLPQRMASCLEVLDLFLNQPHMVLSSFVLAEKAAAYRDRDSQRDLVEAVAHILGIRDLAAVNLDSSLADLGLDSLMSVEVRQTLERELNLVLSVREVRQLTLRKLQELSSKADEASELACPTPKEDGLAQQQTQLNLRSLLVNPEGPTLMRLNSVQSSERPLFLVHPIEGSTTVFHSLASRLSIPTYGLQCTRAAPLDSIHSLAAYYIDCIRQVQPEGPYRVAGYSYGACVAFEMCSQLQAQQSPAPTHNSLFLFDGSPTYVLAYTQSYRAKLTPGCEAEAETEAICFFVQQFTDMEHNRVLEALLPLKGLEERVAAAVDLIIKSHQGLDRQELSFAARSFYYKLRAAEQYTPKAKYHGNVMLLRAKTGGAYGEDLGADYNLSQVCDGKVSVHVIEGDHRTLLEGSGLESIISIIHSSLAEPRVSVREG
Chain of Genome polyprotein (P29990 2492-3391 limits assumed): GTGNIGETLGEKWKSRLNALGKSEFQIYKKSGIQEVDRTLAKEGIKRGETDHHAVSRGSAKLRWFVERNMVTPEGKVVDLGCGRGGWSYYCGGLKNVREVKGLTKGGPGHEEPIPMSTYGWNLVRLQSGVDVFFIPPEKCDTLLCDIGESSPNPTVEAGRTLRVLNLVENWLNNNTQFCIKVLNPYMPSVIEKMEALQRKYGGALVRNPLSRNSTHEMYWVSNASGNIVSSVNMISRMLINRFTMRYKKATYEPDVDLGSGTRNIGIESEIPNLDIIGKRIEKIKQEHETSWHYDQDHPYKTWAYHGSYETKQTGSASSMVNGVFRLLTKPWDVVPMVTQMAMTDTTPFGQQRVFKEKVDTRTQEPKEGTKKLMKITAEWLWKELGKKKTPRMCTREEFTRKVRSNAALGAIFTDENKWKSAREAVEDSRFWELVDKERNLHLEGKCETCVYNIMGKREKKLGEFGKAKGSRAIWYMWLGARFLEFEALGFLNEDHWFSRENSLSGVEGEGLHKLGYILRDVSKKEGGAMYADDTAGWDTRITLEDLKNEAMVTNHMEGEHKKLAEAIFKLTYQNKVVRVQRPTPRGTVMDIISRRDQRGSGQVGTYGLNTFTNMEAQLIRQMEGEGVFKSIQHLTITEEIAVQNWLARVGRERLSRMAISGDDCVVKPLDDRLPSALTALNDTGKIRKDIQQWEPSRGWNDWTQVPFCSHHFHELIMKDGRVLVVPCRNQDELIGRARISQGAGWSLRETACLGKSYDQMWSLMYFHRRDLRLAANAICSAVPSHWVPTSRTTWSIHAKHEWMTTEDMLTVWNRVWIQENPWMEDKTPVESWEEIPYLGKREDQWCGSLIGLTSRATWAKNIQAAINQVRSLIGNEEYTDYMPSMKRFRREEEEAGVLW
Chain of Nonstructural protein 1 (Q194T2 whole entry): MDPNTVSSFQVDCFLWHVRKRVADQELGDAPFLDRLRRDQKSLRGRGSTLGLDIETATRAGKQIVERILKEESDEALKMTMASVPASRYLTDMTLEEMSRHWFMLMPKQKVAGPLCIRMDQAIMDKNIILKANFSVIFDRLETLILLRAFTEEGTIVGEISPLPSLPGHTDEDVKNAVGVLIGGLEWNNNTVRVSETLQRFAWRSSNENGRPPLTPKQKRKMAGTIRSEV
Chain of Large T antigen (P03070 whole entry): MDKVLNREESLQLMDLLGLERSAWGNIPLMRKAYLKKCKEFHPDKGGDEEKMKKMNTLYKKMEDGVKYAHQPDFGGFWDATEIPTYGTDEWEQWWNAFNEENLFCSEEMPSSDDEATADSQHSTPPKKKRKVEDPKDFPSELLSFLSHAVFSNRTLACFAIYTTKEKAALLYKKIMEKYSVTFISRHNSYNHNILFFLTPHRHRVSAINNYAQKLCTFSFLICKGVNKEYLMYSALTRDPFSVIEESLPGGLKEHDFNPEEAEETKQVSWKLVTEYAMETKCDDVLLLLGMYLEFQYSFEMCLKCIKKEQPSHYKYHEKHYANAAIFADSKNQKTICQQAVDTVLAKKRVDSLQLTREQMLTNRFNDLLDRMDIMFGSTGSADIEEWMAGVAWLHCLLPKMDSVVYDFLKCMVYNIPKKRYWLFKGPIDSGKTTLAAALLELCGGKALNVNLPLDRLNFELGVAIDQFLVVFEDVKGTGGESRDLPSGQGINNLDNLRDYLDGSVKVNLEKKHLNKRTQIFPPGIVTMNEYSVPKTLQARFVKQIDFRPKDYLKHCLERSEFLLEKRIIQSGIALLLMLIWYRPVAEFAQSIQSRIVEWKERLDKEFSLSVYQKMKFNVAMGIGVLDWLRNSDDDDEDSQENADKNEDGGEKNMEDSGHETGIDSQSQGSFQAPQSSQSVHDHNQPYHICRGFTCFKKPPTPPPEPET

For `Cc1ccnc(NC(c2cccnc2)c2ccc3cccnc3c2O)c1` (stereo not given), the EC50 [1] was 46.7 µM (active), the EC50 (cells [2]) was > 350 µM (not active) and the EC50 (cells [3]) was 200 µM (active). The EC50 [4] was > 38 µM (not active) and the IC50 (Nonstructural protein 1) was 8.52 µM (active).

For `COc1ccc(-c2nnn(CC(=O)Nc3ccc4c(c3)OCCO4)n2)cc1OC`, the AC50 [5] was 21.2 µM (active) and the AC50 [6] was > 70 µM (inactive).

For `COc1ccccc1NS(=O)(=O)c1cc(C(=O)N2CC(C)CC(C)C2)ccc1C` (stereo not given), the AC50 [7] was 5.54 µM (active) and the EC50 [8] was > 260 µM (inactive).

In the case of `COC(=O)[C@@]12CCCN1[C@H](c1ccc(-c3ccc(OC)cc3)cc1)[C@@H]1C(=O)N(C)C(=O)[C@@H]12`, the AC50 [9] is reported as 38.9 µM (active).

For `Cc1ccc(-n2nnnc2SCC(=O)Nc2cccc(NC(=O)c3ccco3)c2)cc1C`, the IC50 (Estrogen receptor) was 14.9 µM (active).

For `CCC(C)c1ccc(NC(S)=NCc2ccccn2)cc1` (stereo not given), the IC50 [10] was 13.2 µM (active).

With `COc1cccc(C2CC(c3ccc(C)cc3)=NN2C(=O)c2ccccc2F)c1OC` (stereo not given) the AC50 [9] was 36 µM (active) and the AC50 [5] was 30.4 µM (active).

For `CC(C)CCNc1nc(N)c([N+](=O)[O-])c(N2CCCCCC2)n1`, the AC50 [9] was 8.79 µM (active), the AC50 [5] was 5.43 µM (active) and the AC50 [6] was 47.5 µM (active).

In the case of `CCOc1ccc(C(c2c(O)n(C)c(SC)nc2=O)c2c(O)n(C)c(SC)nc2=O)cc1`, the IC50 (Genome polyprotein) is reported as 43 µM (active).

For `O=c1oc(-c2ccccc2F)nc2scc(-c3ccccc3)c12`, the IC50 (Fatty acid synthase [11]) was 1.19 µM (active) and the IC50 (Fatty acid synthase [12]) was 0.638 µM (active).

For `O=C(/C=C/c1cccc([N+](=O)[O-])c1)NCc1ccc2c(c1)OCO2`, the IC50 (Fatty acid synthase [11]) was 2.33 µM (active) and the IC50 (Fatty acid synthase [12]) was 2.72 µM (active).

For `COCCCNC(=O)c1ccc2c(=O)n(Cc3ccc4c(c3)OCO4)c(=S)[nH]c2c1`, the IC50 (Estrogen receptor) was 42 µM (not active).

For `COc1ccc(CNC(=O)c2cc(-c3cccs3)on2)cc1`, the IC50 (Estrogen receptor) was 27.7 µM (active).

In the case of `CSc1nc(O)c(C(c2ccc(O)cc2)c2c(O)nc(SC)nc2O)c(O)n1`, the IC50 (Genome polyprotein) is reported as 46.7 µM (active).

With `CCc1ccc(NC(=O)N(CCN2CCOCC2)Cc2ccc3c(c2)CCCN3CC)cc1` the IC50 (Nonstructural protein 1) was 40.6 µM (active).

In the case of `O=C(Cn1c(=O)n(Cc2ccco2)c(=O)c2c3c(sc21)CCCCC3)c1ccccc1`, the IC50 (Estrogen receptor) is reported as > 50 µM (not active).

For `CCn1c(SCC(=O)Nc2ccc(NC(=O)c3ccco3)c(OC)c2)nc2ccccc2c1=O`, the IC50 (Estrogen receptor) was 35.8 µM (not active).

For `CC(C)COc1ccc(C(=O)N/C(=C/c2cccc([N+](=O)[O-])c2)C(=O)O)cc1`, the IC50 (Fatty acid synthase [11]) was 14.2 µM (active) and the IC50 (Fatty acid synthase [12]) was 9.3 µM (active).

For `O=S(=O)(c1ccc(Cl)cc1)N1CCN(c2ncnc3sccc23)CC1`, the AC50 [9] was 3.04 µM (active), the AC50 (INS1) was 5.44 µM (active) and the AC50 [5] was 5.25 µM (active). The AC50 [6] was 32.2 µM (active).

For `Cc1cc([N+](=O)[O-])c(NCCCCCCO)c([N+](=O)[O-])c1`, the IC50 [10] was 12.6 µM (active).

For `C[C@H](CO)N1C[C@H](C)[C@@H](CN(C)Cc2ccc(-c3ccccc3)cc2)Oc2c(NC(=O)c3ccncc3)cccc2C1=O`, the AC50 [13] was 0.08 µM (active).

In the case of `F[B-](F)(F)c1cc2cc(Br)ccc2s1`, the AC50 [7] is reported as 4.02 µM (active).

For `Cc1cccc(C)c1NC(=O)CN(C)C(=O)c1cccc(S(=O)(=O)N2CCN(c3ccc(F)cc3)CC2)c1`, the AC50 [9] was 2.2 µM (active), the AC50 [5] was 13 µM (active) and the AC50 [6] was > 70 µM (inactive).

With `COc1ccc(NS(=O)(=O)c2ccc(C(=O)N3CCCCCC3)cc2)cc1` the AC50 [9] was 4.51 µM (active), the AC50 [5] was 9.07 µM (active) and the AC50 [6] was 48.4 µM (active).

In the case of `O[C@H]1C[C@H](c2ccc(Cl)cc2)N(CC2CCCCC2)C[C@@H]1n1cc(C2CC2)nn1`, the IC50 (Fatty acid synthase [11]) is reported as 12 µM (active) and the IC50 (Fatty acid synthase [12]) is reported as 13.1 µM (active).

For `C[C@@H]1CCCCO[C@@H](CN(C)Cc2ccc(Cl)c(Cl)c2)[C@@H](C)CN([C@H](C)CO)C(=O)c2cc(NC(=O)Cc3ccccc3)ccc2O1`, the AC50 [13] was 4.04 µM (active).

For `COc1ccc(S(=O)(=O)N(C)C[C@H]2Oc3ccc(NC(=O)Nc4cccc5ccccc45)cc3C(=O)N([C@@H](C)CO)C[C@H]2C)cc1`, the AC50 [13] was 4.38 µM (active).

In the case of `C[C@@H]1CN([C@@H](C)CO)C(=O)c2cccc(NC(=O)c3nc4ccccc4s3)c2O[C@@H]1CN(C)Cc1ccccc1`, the AC50 [13] is reported as 4.84 µM (active).

In the case of `C[C@@H]1CCCCO[C@H](CN(C)C(=O)Nc2ccc(C(F)(F)F)cc2)[C@@H](C)CN([C@H](C)CO)C(=O)c2cc(NC(=O)CCC(F)(F)F)ccc2O1`, the AC50 [13] is reported as 3.67 µM (active).

For `C[C@@H]1CCCCO[C@@H](CN(C)Cc2ccc(C(=O)Nc3ccccc3N)cc2)[C@@H](C)CN([C@H](C)CO)C(=O)c2cc(NS(=O)(=O)c3ccc(Cl)cc3)ccc2O1`, the AC50 [13] was 3.39 µM (active).

With `C[C@@H]1CN([C@H](C)CO)C(=O)Cc2cc(NC(=O)Nc3ccc4c(c3)OCO4)ccc2O[C@H]1CN(C)CC1CCCCC1` the AC50 [13] was 7 µM (active).

In the case of `C[C@@H]1CN([C@H](C)CO)C(=O)Cc2cc(NS(=O)(=O)c3ccc(Cl)cc3)ccc2O[C@@H]1CN(C)Cc1ccc(-c2ccccc2)cc1`, the AC50 [13] is reported as 2.76 µM (active).

With `Cc1[nH]n(-c2ccccc2)c(=O)c1N=Nc1ccccc1C(=O)O` the IC50 (Genome polyprotein) was 58 µM (active).

In the case of `C=CCOC(=O)C1=C(C)N=c2s/c(=C3\C(=O)N(CC(=O)O)c4ccccc43)c(=O)n2C1c1ccc(OC)cc1` (stereo not given), the IC50 (Large T antigen) is reported as 49.1 µM (active), the EC50 [14] is reported as 74 µM (active) and the EC50 [15] is reported as > 120 µM (not active). The IC50 (Genome polyprotein) was 59.4 µM (active), the EC50 [16] was > 120 µM (not active) and the IC50 [17] was 3 µM (active).

For `CCCCSc1nnc2c(n1)[nH]c1ccccc12`, the IC50 (Estrogen receptor) was > 50 µM (not active).
